Common to all, as to assay type: in vivo
Test [1] has as its system Alopecurus myosuroides (ALOMY). The experiment in a line: Post-emergence biological efficacy, glasshouse, 500 or 1000 g/ha, evaluated after 13 days (100=total damage to plant; 0=no damage to plant). Particulars: Alopecurus myosuroides, 312 h, rate 1,000 g/ha, read-out: Percentage damage caused to weed species, post-emergence, ALOMY. The gist of the method: (§1)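 Plants raised from seed in pots of standard soil receive the spray after emergence. They then grow on under controlled glasshouse conditions (24/16° C. day/night, 14 hours light, 65% humidity) and are watered twice a day.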

The subject of test [2] is Solanum nigrum (SOLNI). The description is as above. Particulars: Solanum nigrum, 312 h, rate 1,000 g/ha, read-out: Percentage damage caused to weed species, post-emergence, SOLNI. The gist of the method:
as §1

For test [3], the system named is Ipomoea hederaceae (IPOHE). Described as above. Particulars: Ipomoea, 312 h, rate 1,000 g/ha, read-out: Percentage damage caused to weed species, post-emergence, IPOHE. The gist of the method:
as §1

Test [4] concerns Setaria faberi (SETFA). Described as above. Particulars: Setaria faberi, 312 h, rate 1,000 g/ha, read-out: Percentage damage caused to weed species, post-emergence, SETFA. In outline:
as §1

Test [5] relates to Amaranthus retroflexus (AMARE). The test is described as above. Particulars: Amaranthus retroflexus, 312 h, rate 1,000 g/ha, read-out: Percentage damage caused to weed species, post-emergence, AMARE. The gist of the method:
as §1

Test [6] relates to Echinochloa crusgaffi (ECHCG). The description is as above. Particulars: Echinochloa, 312 h, rate 1,000 g/ha, read-out: Percentage damage caused to weed species, post-emergence, ECHCG. The gist of the method:
as §1

In test [7] the test system is Echinochloa crus-galli (ECHCG). The experiment in a line: Pre-emergence biological efficacy, glasshouse, 1000 g/ha, evaluated after 13 days (100=total damage to plant; 0=no damage to plant). Particulars: Echinochloa crus-galli, 312 h, rate 1,000 g/ha, read-out: Percentage damage caused to weed species, pre-emergence, ECHCG. The gist of the method: (§2)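 Pot-sown in standard soil; glasshouse 24/16° C. (day/night), 14 h light, 65% humidity; watered twice daily.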

Test [8] has as its system Alopecurus myosuroides (ALOMY). The test is described as above. Particulars: Alopecurus myosuroides, 312 h, rate 1,000 g/ha, read-out: Percentage damage caused to weed species, pre-emergence, ALOMY. The gist of the method:
as §2

Test [9] concerns Solanum nigrum (SOLNI). The description is as above. Particulars: Solanum nigrum, 312 h, rate 1,000 g/ha, read-out: Percentage damage caused to weed species, pre-emergence, SOLNI. In outline:
as §2

Test [10] relates to Ipomoea hederaceae (IPOHE). The test is described as above. Particulars: Ipomoea, 312 h, rate 1,000 g/ha, read-out: Percentage damage caused to weed species, pre-emergence, IPOHE. In outline:
as §2

Test [11] concerns Setaria faberi (SETFA). The test is described as above. Particulars: Setaria faberi, 312 h, rate 1,000 g/ha, read-out: Percentage damage caused to weed species, pre-emergence, SETFA. The gist of the method: as §2
Test [12] concerns Amaranthus retroflexus (AMARE). Described as above. Particulars: Amaranthus retroflexus, 312 h, rate 1,000 g/ha, read-out: Percentage damage caused to weed species, pre-emergence, AMARE. The gist of the method:
as §2

For `COc1c(Cl)ccc(-c2cc3[nH]cc(C)c3c(C(=O)OCC3CCCO3)n2)c1F` (stereo not drawn) [Compound 22-88, 6-(4-Chloro-2-fluoro-3-methoxyphenyl)-3-methyl-4-(tetrahydrofuran-2-yl-methoxycarbonyl)-1H-pyrrolo[3,2-c]pyridine], the pest or weed control at 1000 g/ha in [1] amounted to 30%; in the test on Solanum nigrum (SOLNI) [2], 90%; in test [3], 60%; in the test with Setaria faberi (SETFA) [4], 40%; in test [5], 80%; in test [6], 20%. The pest or weed control at 1000 g/ha in test [7] was 0%; in test [8] it was 10%; in the test with Solanum nigrum (SOLNI) [9], 100%; in [10], 50%; in the test with Setaria faberi (SETFA) [11] it was 10%; in [12] it was 100%.
`COC(=O)c1nc(Cl)cc2[nH]ccc12` [Compound 22-122, 6-chloro-4-methoxycarbonyl-1H-pyrrolo[3,2-c]pyridine]: the pest or weed control at 1000 g/ha was 0% in test [1]; 20% in the test on Solanum nigrum (SOLNI) [2]; 10% in test [3]; 0% with Setaria faberi (SETFA) [4]; 60% in test [5]; 0% in [6]. Also, the pest or weed control at 1000 g/ha (in [7]; in test [8]; in the test on Solanum nigrum (SOLNI) [9]; in test [10]; in the test on Setaria faberi (SETFA) [11]; in [12]) was 0% throughout.
As to `COC(=O)c1nc(Cl)cc2[nH]cc(C)c12` [Compound 22-124, 6-chloro-4-methoxycarbonyl-3-methyl-1H-pyrrolo[3,2-c]pyridine], the pest or weed control at 1000 g/ha in [1] is 30%; in the test with Solanum nigrum (SOLNI) [2], 90%; in [3], 80%; in the test on Setaria faberi (SETFA) [4] it was 40%; in test [5], 80%; in test [6], 20%. For the same compound, the pest or weed control at 1000 g/ha worked out at 20% in test [7]; 70% in test [8]; 100% in the test with Solanum nigrum (SOLNI) [9]; 100% in test [10]; 30% in the test with Setaria faberi (SETFA) [11]; 100% in test [12].
`COC(=O)c1nc(Cl)cc2[nH]cc(Cl)c12` [Compound 22-132, 3,6-dichloro-4-methoxycarbonyl-1H-pyrrolo[3,2-c]pyridine]: the pest or weed control at 1000 g/ha in test [1] worked out at 0%; in the test with Solanum nigrum (SOLNI) [2], 60%; in test [3], 50%; in the test with Setaria faberi (SETFA) [4] it was 0%; in test [5], 50%; in [6], 0%. In addition, the pest or weed control at 1000 g/ha in test [7] was determined as 0%; in [8], 0%; in the test on Solanum nigrum (SOLNI) [9], 10%; in test [10], 40%; in the test on Setaria faberi (SETFA) [11] it was 0%; in [12] it was 0%.
Turning to `COC(=O)c1nc(-c2ccc(Cl)c(OC)c2F)cc2c1ccn2Cc1ccco1` [Compound 32-62, 6-(4-Chloro-2-fluoro-3-methoxyphenyl)-1-(2-furanyl-methyl)-4-methoxycarbonyl-1H-pyrrolo[3,2-c]pyridine], the pest or weed control at 1000 g/ha in test [1] stood at 10%; in the test on Solanum nigrum (SOLNI) [2] it was 80%; in test [3] it was 70%; in the test with Setaria faberi (SETFA) [4], 40%; in [5], 80%; in test [6], 50%. Also, the pest or weed control at 1000 g/ha in test [7] stood at 30%; in test [8] it was 30%; in the test on Solanum nigrum (SOLNI) [9], 80%; in test [10] it was 20%; with Setaria faberi (SETFA) [11] it was 20%; in test [12], 80%.
With `COC(=O)c1nc(-c2ccc(Cl)c(OC)c2F)cc2c1c(C)cn2C(=O)C(C)(C)C` [Compound 37-64, 1-t-Butylcarbonyl-6-(4-chloro-2-fluoro-3-methoxyphenyl)-4-methoxycarbonyl-3-methyl-1H-pyrrolo[3,2-c]pyridine], the pest or weed control at 1000 g/ha in test [1] was found to be 0%; in the test with Solanum nigrum (SOLNI) [2] it was 50%; in test [3] it was 40%; in the test with Setaria faberi (SETFA) [4] it was 0%; in [5], 0%; in test [6] it was 0%. Also, the pest or weed control at 1000 g/ha (in test [7]; in test [8]; with Solanum nigrum (SOLNI) [9]; in [10]; with Setaria faberi (SETFA) [11]; in [12]) was 0% throughout.
For the compound `COC(=O)c1nc(-c2ccc(Cl)c(OC)c2F)cc2c1c(C)cn2C(=O)OC` [Compound 38-64, 6-(4-Chloro-2-fluoro-3-methoxyphenyl)-1,4-di(methoxycarbonyl)-3-methyl-1H-pyrrolo[3,2-c]pyridine], the pest or weed control at 1000 g/ha in test [1] was 10%; in the test on Solanum nigrum (SOLNI) [2] it was 10%; in [3], 20%; in the test on Setaria faberi (SETFA) [4], 10%; in test [5] it was 0%; in test [6], 0%. Also, the pest or weed control at 1000 g/ha (in test [7]; in [8]; in the test on Solanum nigrum (SOLNI) [9]; in test [10]; in the test with Setaria faberi (SETFA) [11]; in test [12]) was 0% throughout.
On to `COC(=O)c1nc(-c2ccc(Cl)c(OC)c2F)cc2c1c(C)cn2S(=O)(=O)c1ccc(C)cc1` [Compound 40-64, 6-(4-Chloro-2-fluoro-3-methoxyphenyl)-4-methoxycarbonyl-3-methyl-1-(4-methylphenyl-sulphonyl)-1H-pyrrolo[3,2-c]pyridine], for which the pest or weed control at 1000 g/ha came out at 0% in test [1]; 60% with Solanum nigrum (SOLNI) [2]; 50% in test [3]; 0% in the test with Setaria faberi (SETFA) [4]; 0% in test [5]; 0% in [6]. The pest or weed control at 1000 g/ha in [7] was 10%; in test [8], 0%; in the test with Solanum nigrum (SOLNI) [9], 40%; in test [10] it was 0%; with Setaria faberi (SETFA) [11], 10%; in test [12], 0%.

The record behind these values is patent publication US20120202690A1, “HERBICIDAL COMPOUNDS” (SYNGENTA LIMITED, priority 2009, published 2012).
